Measurements taken from the NIST ThermoML archive (doi:10.1021/je400531a).
Several values for one entry are separate records, joined by “and”; a condition that tells them apart may be missing. Equal values may be shown once.

Tests used:
[1] = Liquid; for mass density: 293.15 K, 101.33 kPa, Vibrating tube method; for vapor or sublimation pressure: Ebulliometric method (Recirculating still)
[2] = refractive index (Na D-line) (dimensionless); conditions: 293.15 K; 101.33 kPa; Liquid; Standard Abbe refractometry

CC#N [acetonitrile]
Conditions	mass density [kg/m3]	refractive index
[1]	782	–
[2]	–	1.3425

[1]
Conditions	vapor or sublimation pressure
307.22 K	18.08 kPa
311.3 K	21.45 kPa
314.05 K	24 kPa
316.73 K	26.73 kPa
320.8 K	31.35 kPa
323.52 K	34.82 kPa
325.8 K	37.88 kPa
328.95 K	42.59 kPa
330.5 K	45.06 kPa
333.02 K	49.34 kPa
335.2 K	53.31 kPa
338.45 K	59.68 kPa
341.17 K	65.47 kPa
343.43 K	70.59 kPa
346.6 K	78.43 kPa
350.67 K	89.46 kPa
354.75 K	101.64 kPa and 101.3 kPa

C[S+](C)[O-] [dimethyl sulfoxide]
Conditions	mass density [kg/m3]	refractive index
[1]	1101	–
[2]	–	1.4751

[1]
Conditions	vapor or sublimation pressure
401.95 K	15.28 kPa
405.11 K	17.11 kPa
408.75 K	19.42 kPa
411.45 K	21.32 kPa
414.6 K	23.72 kPa
419.36 K	27.76 kPa
421.15 K	29.41 kPa
424.1 K	32.35 kPa
430.45 K	39.43 kPa
433.59 K	43.43 kPa
436.75 K	47.75 kPa
439.92 K	52.42 kPa
442.85 K	57.05 kPa
447.83 K	65.75 kPa
455.74 K	81.72 kPa
463.43 K	101.3 kPa
463.45 K	100.76 kPa and 101.3 kPa

O [water]
[1]
Conditions	vapor or sublimation pressure
320.37 K	10.74 kPa
324.33 K	13.09 kPa
326.63 K	14.66 kPa
328.29 K	15.86 kPa
333.57 K	20.33 kPa
340.16 K	27.37 kPa
343.85 K	32.16 kPa
345.44 K	34.4 kPa
347.83 K	38.07 kPa
349.4 K	40.62 kPa
351.8 K	44.82 kPa
354.68 K	50.37 kPa
358.64 K	58.91 kPa
361.08 K	64.72 kPa
362.59 K	68.63 kPa
367.87 K	83.63 kPa
373.15 K	101.31 kPa and 101.3 kPa

Conditions	refractive index
[2]	1.3312
